Test results published in patent US7112585B2, “Pyrimidine derivatives as corticotropin releasing factor inhibitors” (Bristol-Myers Squibb Company, priority 2003, dated 2006).

What was measured:
[1] = target: T1, cloned human CRF-R1 receptors (Homo sapiens, UniProt P34998); assay: CRF-R1 Receptor Binding Assay (inhibition of 125I-ovine-CRF binding to cell membranes); set-up: key to activity: a: Ki≦100 nM; b: 100 nM<Ki≦500 nM; c: 500 nM<Ki≦5,000 nM; activity reported in percent inhibition at 10 μM; settings: CRF assays; class d = activity only as percent inhibition at 10 μM (value not given)
T1 construct: the coding region was amplifies by PCR from start to stop codons; expressed in transfected cells; host or cells: 293EBNA (HEK 293 EBNA-1) cells, episomal vector phchCRFR, hygromycin-selected pool; membranes
T1 sequence (P34998 24-415): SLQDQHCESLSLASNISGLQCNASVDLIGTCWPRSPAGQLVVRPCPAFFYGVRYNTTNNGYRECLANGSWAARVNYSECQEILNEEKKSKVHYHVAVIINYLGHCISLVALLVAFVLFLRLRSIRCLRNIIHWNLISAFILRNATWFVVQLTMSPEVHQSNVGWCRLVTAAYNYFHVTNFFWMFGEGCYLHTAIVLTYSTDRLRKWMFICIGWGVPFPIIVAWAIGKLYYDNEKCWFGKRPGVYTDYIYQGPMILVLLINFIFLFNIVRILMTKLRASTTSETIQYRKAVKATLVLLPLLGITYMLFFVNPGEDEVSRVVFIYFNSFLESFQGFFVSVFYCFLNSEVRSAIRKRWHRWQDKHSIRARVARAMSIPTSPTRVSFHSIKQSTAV
From the text: CRF-R1 Receptor Binding Assay for the Evaluation of Biological Activity
The following is a description of the isolation of cell membranes containing cloned human CRF-R1 receptors for use in a standard binding assay as well as a description of the assay itself.
Messenger RNA was isolated from human hippocampus. The mRNA was isolated from human hippocampus. The mRNA was reverse transcribed using oligo (dt) 12–18 and the coding region was amplifies by PCR from start to stop codons. The resulting PCR fragment was cloned into the EcORV site of pGEMV, from whence the insert was reclaimed using XhoI+XbaI and cloned into the XhoI+XbaI sites of vector pm3as (which contains a CMV promoter, the SV′t′ splice and early poly A signals, an Eptein-Barr viral origin of replication, and a hygromycin selectable marker). The resulting expression vector, called phchCRFR was transfected in 293EBNA cells and cells retaining the episome were selected in the presence of […] hygromycin. Cells surviving 4 weeks of selection in hygromycin were pooled, adapted to growth in suspension and used to generate membranes for the binding assay described below. Individual aliquots containing approximately 1×10^8 of the suspended cells were then centrifuged to form a pellet and frozen. For the binding assay a frozen pellet described above containing 293EBNA cells transfected with hCRFR1 receptors is homogenized in 10 mL of ice cold tissue buffer (50 mM HEPES buffer pH 7.0, containing 10 MM MgCl2, 2 mM EGTA, 1 μg/mL apotinin, 1 μg/mL leupeptin and 1 μg/mL pepstatin). The homoginate is centrifuged at 40,000×g for 12 min and the resulting pellet rehomogenized in 10 mL of tissue buffer. After another centrifugation at 40,000×g for 12 min, the pellet is resuspended to a protein concentration of 360 μg/mL to be used in the assay.
Binding assays are performed in 96 well plates; each well having a 300 μL capacity. To each well is added 50 μL of test drug dilutions (final concentration of drugs range from 10^−10–10^−5 M), 100 μL of ^125I-ovine-CRF (^125I-o-CRF) (final concentration 150 pM) and 150 μL of the cell homoginate described above. Plates are then allowed to incubate at room temperature for 2 hours before filtering the incubate over GF/F filters (presoaked with 0.3% polyethyleneimine) using an appropriate cell harvester. Filters are rinsed 2 times with ice cold assay buffer before removing individual filters and assessing them for radioactivity on a gamma counter.
Curves of the inhibition of ^125I-o-CRF binding to cell membranes at various dilutions of test drug are analyzed by the iterative curve fitting program LIGAND [P. J. Munson and D. Rodbard, Anal. Biochem., 107:220 (1980), which provides Ki values for inhibition which are then used to assess biological activity. […]
Messenger RNA was isolated from human hippocampus. The mRNA was isolated from human hippocampus. The mRNA was reverse transcribed using oligo (dt) 12–18 and the coding region was amplifies by PCR from start to stop codons. The resulting PCR fragment was cloned into the EcORV site of pGEMV, from whence the insert was reclaimed using XhoI+XbaI and cloned into the XhoI+XbaI sites of vector pm3as (which contains a CMV promoter, the SV′t′ splice and early poly A signals, an Eptein-Barr viral origin of replication, and a hygromycin selectable marker). The resulting expression vector, called phchCRFR was transfected in 293EBNA cells and cells retaining the episome were selected in the presence of […] hygromycin. Cells surviving 4 weeks of selection in hygromycin were pooled, adapted to growth in suspension and used to generate membranes for the binding assay described below. […]
A frozen pellet described above containing 293EBNA cells transfected with hCRFR1 receptors or the rat frontal cortex tissue dissected from frozen rat brains was prepared as the source of membranes expressing CRF1 receptors used in binding assays. […]

Compound	melting point [°C]	Ki [1] [nM]	activity [1]
Cc1cc(C)c(Nc2nc(C)ncc2S(=O)(=O)c2ccc(NCc3ccccc3)cc2)c(C)c1 [Example 20, [5-(4-Benzylaminobenzenesulfonyl)-2-methylpyrimidin-4-yl]-(2,4,6-trimethylphenyl)-amine]	200 to 202	100 to 500	–
Cc1cc(C)c(Nc2nc(N(C)C)ncc2S(=O)(=O)c2cccc(OCc3ccccc3)c2)c(C)c1 [Example 9, 5-(3-Benzyloxybenzenesulfonyl)-N^2,N^2-dimethyl-N^4-(2,4,6-trimethylphenyl)-pyrimidine-2,4-diamine]	52 to 58	500 to 5000	–
COc1ncc(S(=O)(=O)c2cccc(OCc3ccccc3)c2)c(Nc2c(C)cc(C)cc2C)n1 [Example 8, [5-(3-Benzyloxybenzenesulfonyl)-2-methoxypyrimidin-4-yl]-(2,4,6-trimethylphenyl)-amine]	–	–	d
Cc1cc(C)c(Nc2nc(C)ncc2S(=O)(=O)c2ccc(N3CCOCC3)cc2)c(C)c1 [Example 16, [2-Methyl-5-(4-morpholin-4-yl-benzenesulfonyl)-pyrimidin-4-yl]-(2,4,6-trimethylphenyl)-amine]	221 to 223	–	d
Cc1cc(C)c(Nc2nc(C)ncc2S(=O)(=O)c2ccc(C#N)cc2)c(C)c1 [Example 22, 4-[2-Methyl-4-(2,4,6-trimethylphenylamino)-pyrimidine-5-sulfonyl]-benzonitrile]	258 to 260	500 to 5000	–
Cc1cc(C)c(Nc2nc(C)ncc2S(=O)(=O)c2ccc(N3CCN(C)CC3)cc2)c(C)c1 [Example 17, {2-Methyl-5-[4-(4-methylpiperazin-1-yl)-benzenesulfonyl]-pyrimidin-4-yl}-(2,4,6-trimethylphenyl)-amine]	–	–	d
Cc1cc(C)c(Nc2nc(C)ncc2S(=O)(=O)c2ccc(-c3ccncc3)cc2)c(C)c1 [Example 26, [2-Methyl-5-(4-pyridin-4-yl-benzenesulfonyl)-pyrimidin-4-yl]-(2,4,6-trimethylphenyl)-amine]	232 to 234	500 to 5000	–
Cc1cc(C)c(Nc2nc(C)ncc2S(=O)(=O)c2ccc(-c3cncnc3)cc2)c(C)c1 [Example 24, [2-Methyl-5-(4-pyrimidin-5-yl-benzenesulfonyl)-pyrimidin-4-yl]-(2,4,6-trimethylphenyl)-amine]	210 to 212	–	d
Cc1cc(C)c(Nc2nc(C)ncc2S(=O)(=O)c2ccc(-c3cccnc3)cc2)c(C)c1 [Example 28, [2-Methyl-5-(4-pyridin-3-yl-benzenesulfonyl)-pyrimidin-4-yl]-(2,4,6-trimethylphenyl)-amine]	190 to 192	500 to 5000	–
Cc1cc(C)c(Nc2nc(C)ncc2S(=O)(=O)c2ccc(-c3ccccn3)cc2)c(C)c1 [Example 27, [2-Methyl-5-(4-pyridin-2-yl-benzenesulfonyl)-pyrimidin-4-yl]-(2,4,6-trimethylphenyl)-amine]	201 to 203	≤ 100	–
Cc1cc(C)c(Cc2nc(C)ncc2S(=O)(=O)c2ccc(OCc3ccccc3)cc2)c(C)c1 [Example 14, 5-(4-Benzyloxybenzenesulfonyl)-2-methyl-4-(2,4,6-trimethylbenzyl)-pyrimidine]	166 to 168	≤ 100	–
Cc1cc(C)c(Nc2nc(C)ncc2S(=O)(=O)c2ccc(-n3ccnc3)cc2)c(C)c1 [Example 18, [5-(4-Imidazol-1-yl-benzenesulfonyl)-2-methylpyrimidin-4-yl]-(2,4,6-trimethylphenyl)-amine]	230 to 232	–	d
COc1ccccc1COc1ccc(S(=O)(=O)c2cnc(C)nc2Nc2c(C)cc(C)cc2C)cc1 [Example 10, {5-[4-(2-Methoxybenzyloxy)-benzenesulfonyl]-2-methylpyrimidin-4-yl}-(2,4,6-trimethylphenyl)-amine]	200 to 202	≤ 100	–
COc1ccc(Nc2nc(C)ncc2S(=O)(=O)c2ccc(OCc3ccccc3)cc2)c(C)c1 [Example 5, [5-(4-Benzyloxybenzenesulfonyl)-2-methylpyrimidin-4-yl]-(4-methoxy-2-methylphenyl)-amine]	110 to 114	100 to 500	–
Cc1cc(C)c(Nc2nc(C)ncc2S(=O)(=O)c2ccc(N(C)Cc3ccccc3)cc2)c(C)c1 [Example 21, {5-[4-(Benzylmethylamino)-benzenesulfonyl]-2-methylpyrimidin-4-yl}-(2,4,6-trimethylphenyl)-amine]	146 to 148	≤ 100	–
Cc1cc(C)c(Nc2nc(C)ncc2S(=O)(=O)c2ccc(N3CCCC3)cc2)c(C)c1 [Example 19, [2-Methyl-5-(4-pyrrolidin-1-yl-benzenesulfonyl)-pyrimidin-4-yl]-(2,4,6-trimethylphenyl)-amine]	196 to 198	–	d
COc1ccc(Nc2nc(C)ncc2S(=O)(=O)c2ccc(OCc3ccccc3)cc2)c(C)n1 [Example 6, [5-(4-Benzyloxybenzenesulfonyl)-2-methylpyrimidin-4-yl]-(6-methoxy-2-methylpyridin-3-yl)-amine]	160 to 165	–	d
Cc1cc(C)c(Nc2nc(C)ncc2S(=O)(=O)c2cccc(OCc3ccccc3)c2)c(C)c1 [Example 7, [5-(3-Benzyloxybenzenesulfonyl)-2-methylpyrimidin-4-yl]-(2,4,6-trimethylphenyl)-amine]	112 to 115	100 to 500	–
Cc1cc(C)c(Nc2nc(C)ncc2S(=O)(=O)c2ccc(-c3ncc[nH]3)cc2)c(C)c1 [Example 30, {5-[4-(1H-Imidazol-2-yl)-benzenesulfonyl]-2-methyl-pyrimidin-4-yl}-(2,4,6-trimethylphenyl)-amine]	282 to 284	–	d
Cc1ccc(S(=O)(=O)c2cnc(C)nc2Nc2c(C)cc(C)cc2C)cc1 [Example 23, [2-Methyl-5-(toluene-4-sulfonyl)-pyrimidin-4-yl]-(2,4,6-trimethylphenyl)-amine]	202 to 204	100 to 500	–
COc1cc(COc2ccc(S(=O)(=O)c3cnc(C)nc3Nc3c(C)cc(C)cc3C)cc2)cc(OC)c1 [Example 11, {5-[4-(3,5-Dimethoxybenzyloxy)-benzenesulfonyl]-2-methylpyrimidin-4-yl}-(2,4,6-trimethylphenyl)-amine]	–	≤ 100	–
COc1ccc(Nc2nc(C)ncc2S(=O)(=O)c2ccc(OCc3ccccc3)cc2)c(OC)c1 [Example 12, [5-(4-Benzyloxybenzenesulfonyl)-2-methylpyrimidin-4-yl]-(2,4-dimethoxyphenyl)-amine]	–	–	d
